TGI and GI50 data for 27 molecules are collected here from PubChem BioAssay (NCI).

Values joined by “and” are separate entries in the source; they are usually repeats but may differ in a detail not shown here. Identical values can stand only once.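 Test compounds were applied to cells in 96-well plates for 48 hours at 5 doses. GI50 = concentration required for 50% inhibition of growth. TGI is the concentration that stops growth completely.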

Holding throughout (test): inhibition of tumour cell growth, NCI panel, 48 h
Assay [1] deals with 786-0 renal.
In assay [2] the test system is CCRF-CEM leukemia.
Assay [3] relates to EKVX NSCLC.
Assay [4] concerns NCI-H23 lung.
For assay [5], the system named is SF-539 CNS.
Assay [6] has as its system SK-MEL-5 melanoma.
The test system of assay [7] is SNB-75 CNS.
Assay [8] deals with U251 CNS.
The subject of assay [9] is UO-31 renal.

Regarding `NS(=O)(=O)c1ccc(Nc2c3ccccc3nc3c(C(=O)N4CCN(CCO)CC4)cccc23)cc1`, the TGI in [1], in assay [2], in assay [3], in [4], in [5] and in assay [6] was above 100 µM in each case. For the same molecule, the TGI in assay [7], in assay [8] and in assay [9] was above 100 µM in each case.

For the molecule `O=[N+]([O-])c1ccc(C(Cl)C(Cl)c2ccc(C(Cl)C(Cl)c3ccc([N+](=O)[O-])cc3[N+](=O)[O-])cc2)c([N+](=O)[O-])c1` (stereo not given), the GI50 is 0.321 µM in [1]; 0.559 µM in assay [3]; 0.216 µM in [4]; 0.466 µM in assay [5]; 0.172 µM in [6]; 0.231 µM in assay [7]. The GI50 in [9] was 0.244 µM. Also, the TGI is 5.62 µM and 1.09 µM in assay [1]; 1.02 µM in [2]; 6.18 µM and 2.49 µM in assay [3]; 4.69 µM and 0.582 µM in [4]; 5.35 µM and 11.6 µM in [5]; 1.86 µM and 0.335 µM in assay [6]. Also, the TGI in assay [8] amounted to 3.03 µM.

`CCN(CC)CC(C)C(=O)/C=C/c1ccc(C)cc1` (stereo not given): the TGI came out at 3.65 µM in assay [1]; 16.1 µM in assay [2]; 26.8 µM in [3]; 19.9 µM in assay [4]; 3.85 µM in assay [5]; 17 µM in assay [6]. Further, the TGI in assay [7] stood at 3.17 µM; in assay [8], 3.43 µM; in assay [9] it was 26.4 µM.

Regarding `CC(C)(C)c1cc(CCCCCCCC2(CCCCCCCc3cc(C(C)(C)C)cc(C(C)(C)C)c3)OC(COCCOCCCCCC#N)C(COCCOCCCCCC#N)O2)cc(C(C)(C)C)c1` (stereo not given), the TGI in [1], in assay [2], in assay [3], in assay [4], in [6] and in assay [7] was above 100 µM each time. For the same molecule, the TGI in assay [8] and in assay [9] was above 100 µM in each case.

`Cc1ccc(S(=O)(=O)N2CCN(C=S)CC2)cc1`: the TGI in assay [1], in [2], in [3], in assay [4], in [5] and in assay [6] was above 100 µM each time. Further, the TGI in assay [7], in [8] and in assay [9] was above 100 µM throughout.

In the case of `CC1=NN(C(=O)Nc2ccc(Cl)cc2)C(=O)C2CCC(=O)N12` (stereo not given), the TGI in [1], in [2], in [3], in assay [4], in assay [5] and in assay [6] was above 100 µM in each case. Further, the TGI in assay [7], in assay [8] and in assay [9] was above 100 µM throughout.

Consider `O=C(N/C(=C\c1cccc([N+](=O)[O-])c1)c1nc2ccccc2[nH]1)c1ccccc1`, for which the TGI in assay [1], in assay [2], in [3], in assay [4], in assay [5] and in assay [6] was above 100 µM throughout. The TGI in assay [7] is above 100 µM; in assay [8] it was above 100 µM; in assay [9], 69.4 µM.

As for `CC(=O)O[C@H]1CCN2C(=O)C=CC(OCc3ccccc3)C12` (stereo not given in full), the TGI in assay [1], in assay [2], in [3], in assay [4], in assay [5] and in assay [6] was above 100 µM throughout. In addition, the TGI in [7], in assay [8] and in [9] was above 100 µM throughout.

With `CSc1nc2nn(Cc3ccccc3)cc2c(=O)[nH]1`, the TGI in assay [1], in [2], in assay [3], in [4], in [5] and in assay [6] was above 100 µM each time. Besides, the TGI in assay [7], in assay [8] and in [9] was above 100 µM throughout.

Regarding `N#CCC(=O)N/N=C1/C(=O)N(c2cc(Cl)ccc2Cl)C(=O)C(=O)C1c1nc2ccccc2s1` (stereo not given), the TGI in assay [1], in assay [2], in [3], in assay [4], in assay [5] and in [6] was above 100 µM each time. Also, the TGI in [7], in assay [8] and in assay [9] was above 100 µM in each case.

Regarding `COc1cccc(/C=C/C(=O)c2sc(C(N)=S)nc2C)c1O`, the TGI in assay [1] was above 100 µM; in assay [2], 64.2 µM; in [3], above 100 µM; in assay [4], above 100 µM; in [5], 97 µM; in assay [6] it was above 100 µM. Moreover, the TGI in assay [7], in assay [8] and in [9] was above 100 µM in each case.

For the molecule `CCOc1cn(C2OC(CO)C(O)C2O)c(=O)[nH]c1=O` (stereo not given), the TGI in [1], in [2], in assay [3], in assay [4], in assay [6] and in [7] was above 100 µM in each case. Also, the TGI in [8] was 43.7 µM; in assay [9], above 100 µM.

As for `COc1cc(CNCCN2C(=O)c3ccc4c5c(ccc(c35)C2=O)C(=O)N(CCNCc2cc(OC)c(OC)c(OC)c2)C4=O)cc(OC)c1OC`, the GI50 in assay [1] was 0.145 µM; in assay [4], 0.794 µM; in assay [5] it was 0.4 µM; in [7] it was 0.232 µM; in assay [8], 0.182 µM. The TGI in assay [1] amounted to 0.391 µM; in assay [4], 1.78 µM; in assay [5], 1.11 µM; in assay [7], 0.826 µM; in assay [8], 0.684 µM.

In the case of `O=C(OCCCl)C1OC(n2cc(F)c(=O)[nH]c2=O)CC1O` (stereo not given), the TGI in assay [1], in [2], in [3], in [4], in assay [5] and in assay [6] was above 100 µM each time. The TGI in [7], in assay [8] and in assay [9] was above 100 µM throughout.

In the case of `O=C1C(=C([O-])c2ccccc2)C(=O)c2ccccc21.O=C1C(=C([O-])c2ccccc2)C(=O)c2ccccc21.[Mn+2]`, the GI50 in assay [1] is above 100 µM; in [3] it was above 100 µM; in assay [5] it was above 100 µM; in assay [6] it was 16.1 µM; in [7], above 100 µM; in [9], 43.9 µM. The TGI in assay [1], in assay [3], in assay [5], in assay [6], in [7] and in [9] was above 100 µM each time.

`O=C(/C=C/c1ccccc1O)c1ccc([N+](=O)[O-])cc1`: the TGI is 32.6 µM in assay [1]; 66.1 µM in assay [2]; 43.4 µM in [3]; 25.4 µM in assay [4]; 29.2 µM in [5]; 49.8 µM in assay [6]. Moreover, the TGI in assay [7] came to 31.6 µM; in assay [8] it was 28.5 µM; in assay [9] it was 33.2 µM.

With `NS(=O)(=O)c1ccc(NC(=O)Cc2nc3ccccc3s2)cc1`, the TGI in assay [1] is 33.5 µM; in assay [2] it was 47.3 µM; in assay [3], 37.2 µM; in assay [4] it was 29.5 µM; in [5] it was 32.3 µM; in assay [6], 34.5 µM. The TGI in assay [7] came out at 30.4 µM; in assay [8] it was 28.5 µM; in assay [9], 62.6 µM.

For the molecule `Cc1ccc(/C=C(\NC(=O)c2ccccc2)c2nc3ccccc3[nH]2)cc1`, the TGI in assay [1] was above 100 µM; in [3], above 100 µM; in assay [4], above 100 µM; in assay [5] it was above 100 µM; in assay [6], 36.7 µM; in [8], above 100 µM. This molecule also gave a TGI in assay [9] above 100 µM.

As for `CCOc1ccc(/C=C/c2cc(OC)c(OC)c(OC)c2)cc1`, the TGI in assay [1] is 37.4 µM; in assay [2] it was above 66.8 µM; in assay [3], above 100 µM; in assay [4] it was above 45.6 µM; in assay [5], 3.02 µM; in assay [6], 14.6 µM. Besides, the figures for the TGI in assay [7], in assay [8] and in [9] were above 64.1 µM, 13.2 µM and above 100 µM, respectively.

Regarding `CC(=O)OCCOCNC(=S)N/N=C/c1cc([N+](=O)[O-])ccc1O`, the TGI in [1], in [2], in assay [3], in [4], in assay [5] and in assay [6] was above 100 µM in each case. For the same molecule, the TGI in [7], in assay [8] and in assay [9] was above 100 µM in each case.

On to `O=C(Cc1nc2ccccc2o1)C(=O)Nc1cccc(Cl)c1`, for which the TGI in assay [1], in assay [2], in assay [3], in assay [4], in assay [5] and in assay [7] was above 100 µM each time. In addition, the TGI in assay [8] and in [9] was above 100 µM throughout.

As for `Cc1[nH]c2ccccc2c1CC/C(=N\Nc1ccccc1)c1ccccc1`, the TGI in assay [1], in assay [2], in [3], in assay [4], in assay [5] and in [6] was above 100 µM each time. The TGI in [7], in [8] and in assay [9] was above 100 µM in each case.

As to `c1ccncc1`, the TGI in assay [1], in assay [2], in assay [3], in assay [4], in assay [5] and in [6] was above 100 µM each time. Also, the TGI in [7], in [8] and in assay [9] was above 100 µM in each case.

With `CCOC(=O)C(CCC(N)=O)(CCC(=O)OC)C(=O)OCC`, the TGI in [1], in assay [3], in assay [4], in [5], in assay [7] and in [8] was above 100 µM throughout. The TGI in [9] is above 100 µM.

For the molecule `NC1CCCCC1N.O=C1C=C/C(=C(/c2ccc(O)c(Br)c2)c2ccccc2S(=O)(=O)[O-])C=C1Br.O=C1C=C/C(=C(/c2ccc(O)c(Br)c2)c2ccccc2S(=O)(=O)[O-])C=C1Br.[Pt+4]`, the GI50 in assay [1] is 2.42 µM; in assay [3] it was 93 µM; in assay [4], 2.88 µM; in [5], 2.62 µM; in assay [6], 3.29 µM; in assay [7] it was 0.992 µM. Also, the GI50 in assay [8] was 5.21 µM; in assay [9], 8.03 µM. Also, the TGI is above 100 µM in [1]; above 100 µM in assay [3]; above 100 µM in assay [4]; 50.8 µM in [5]; 21.4 µM in assay [6]; above 100 µM in [7]. Also, the TGI in assay [8] and in assay [9] was above 100 µM in each case.

Regarding `COC(=O)c1ncc2c(=O)[nH]c3ccccc3c2c1C(=O)OC`, the TGI in [1], in [2], in assay [3], in assay [4], in assay [5] and in assay [6] was above 100 µM throughout. In addition, the TGI in assay [7] and in [9] was above 100 µM each time.

As for `CC(C)(C)C(=O)Nc1cccc2oc(-c3ccccc3)cc12`, the TGI in [1], in [2], in [3], in assay [4], in [5] and in [7] was above 100 µM each time. The TGI in assay [8] and in assay [9] was above 100 µM each time.
